Assay results taken from patent US20250074892A1, “CARBONYL BRIDGED HETEROCYCLIC COMPOUND, AND COMPOSITION AND APPLICATION THEREOF” (BEIJING SCITECH-MQ PHARMACEUTICALS LIMITED, priority 2022, published 2025).

What was measured:
HT29 cells = test: Inhibition of cell necrosis (CCK8 method), HT29 cells; format: cell-based, human; conditions: for IC50: HT29, Human TNF-α/AT-406/Z-VAD-FMK, 16 hours, CCK8; for inhibitory activity against human HT29 cells: HT29 necrosis
Method: (§1) In this assay example 2, under the condition of inducing programmed cell necrosis of HT29 and L929 cell lines, different concentrations of the test compounds were added to test the IC50 of the rescue effect of the test compounds on the programmed necrosis.
(§2) • Compounds: dissolved in DMSO to make a 10 mM solution; • TNF-α: initial concentration of 100 µg/mL; • Z-VAD-FMK: dissolved in DMSO to make a 10 mM solution; • AT-406: dissolved in DMSO to make a 10 mM solution. • Cell lines: HT29 cells were cultured in McCoy's 5A medium containing 10% fetal bovine serum, 100 U/mL penicillin, and 100 µg/mL streptomycin, and L929 cells were cultured in MEM medium containing 10% horse serum, 100 U/mL penicillin, and 100 µg/mL streptomycin.
(§3) 1. The test compound was dissolved in DMSO to form a stock solution, and a gradient dilution was performed; the solution was then diluted with the corresponding culture medium to obtain a solution with 10 times the working concentration.
(§4) 2. The cells in the logarithmic growth phase were diluted with culture medium to a specific cell concentration. 80 µL of the cell suspension was added to a 96-well plate, so that the cell densities of HT29 and L929 were 1.2*10^4 cells/well and 2.0*10^4 cells/well, respectively. The plate was cultured in a 37° C., 5% carbon dioxide incubator overnight.
(§5) 3. […] of the compound solution was added to each well of the 96-well plate inoculated with cells. The compounds to be tested were serially diluted 4-fold to obtain 9 concentrations in duplicate, starting from a maximum concentration of 10 μM. At the same time, a control group without compound addition was set up.
(§6) 4. After the cells were cultured for another 30 minutes, 10 μL of the inducer mixture was added to each well. The final concentrations of Human TNF-α, AT-406 and Z-VAD-FMK in HT29 cells were 20 ng/mL, […] and 20 μM, respectively; and the final concentrations of Murine TNF-α and Z-VAD-FMK in L929 cells were 20 ng/mL and 25 μM, respectively.
(§7) 5. The 96-well plate in which compounds and inducer were added was placed in a 37° C., 5% carbon dioxide incubator for further culture, wherein HT29 cells were cultured for 16 hours and L929 cells were cultured for 4-8 hours. Cell viability was detected by CCK8. GraphPad Prism software was used to prepare a dose-effect curve and IC50 was calculated.

L929 cells = test: Inhibition of cell necrosis (CCK8 method), L929 cells; format: cell-based, mouse; conditions: for IC50: 4-8 hours, CCK8; for inhibitory activity against mouse L929 cells: L929 necrosis
Method: as §1, §2, §3, §4, §5, §6, §7

[1] = Mus musculus, L929, L929, Murine TNF-α/Z-VAD-FMK

SMILES: CCC(O)(CC)COc1ccc(F)c(-c2ccnc(N3CCC(C(=O)N4N=CCC4c4cc(F)cc(F)c4)CC3)c2)c1 (stereo not shown) [Example 44, [5-(3,5-difluorophenyl)-4,5-dihydro-1H-pyrazol-1-yl]-[1-[4-[5-(2-ethyl-2-hydroxybutoxy)-2-fluorophenyl]pyridin-2-yl]piperidin-4-yl]methanone]
- IC50 (HT29 cells; Homo sapiens, HT-29, 16 h): ≤ 10 nM
- IC50 (L929 cells; [1]): 10 to 50 nM

SMILES: O=C(C1CCN(c2cc(-c3cc(OCC4(O)CC4)ccc3F)ccn2)CC1)N1N=CCC1c1cc(F)cc(F)c1 (stereo not shown) [Example 45, [5-(3,5-difluorophenyl)-4,5-dihydro-1H-pyrazol-1-yl]-[1-[4-[2-fluoro-5-[(1-hydroxycyclopropyl)methoxy]phenyl]pyridin-2-yl]piperidin-4-yl]methanone]
- IC50 (HT29 cells; Homo sapiens, HT-29, 16 h): ≤ 10 nM
- IC50 (L929 cells; [1]): 10 to 50 nM

SMILES: O=C(C1CCN(c2cc(-c3cc(OCC4(O)CCC4)ccc3F)ccn2)CC1)N1N=CCC1c1cc(F)cc(F)c1 (stereo not shown) [Example 46, (5-(3,5-difluorophenyl)-4,5-dihydro-1H-pyrazol-1-yl)(1-(4-(2-fluoro-5-((1-hydroxycyclobutyl)methoxy)phenyl)pyridin-2-yl)piperidin-4-yl)methanone]
- IC50 (HT29 cells; Homo sapiens, HT-29, 16 h): ≤ 10 nM
- IC50 (L929 cells; [1]): 10 to 50 nM

SMILES: CC(C)(O)COc1ccc(F)c(-c2ccnc(N3CCC(C(=O)N4N=CCC4c4cc(F)cc(F)c4)CC3)c2)c1 (stereo not shown) [Example 47, (5-(3,5-difluorophenyl)-4,5-dihydro-1H-pyrazol-1-yl-5-deuterium)(1-(4-(2-fluoro-5-(2-hydroxy-2-methylpropoxy)phenyl)pyridin-2-yl)piperidin-4-yl)methanone]
- IC50 (HT29 cells): 10 to 50 nM
- IC50 (L929 cells; L929, Murine TNF-α/Z-VAD-FMK): 10 to 50 nM

SMILES: NC(=O)c1ccc(N2CCC(C(=O)N3N=CCC3c3ccccc3)CC2)nc1 (stereo not shown) [compound 1, reference compound]
- inhibitory activity against human HT29 cells (HT29 cells): significantly inferior to those of the compounds of the present application
- IC50 (HT29 cells; Homo sapiens, HT-29, 16 h): 400 to 4000 nM
- inhibitory activity against mouse L929 cells (L929 cells): almost no inhibitory activities
- IC50 (L929 cells; [1]): > 4000 nM

SMILES: O=C(C1CCN(c2nccc(-c3ccccc3)n2)CC1)N1N=CCC1c1ccccc1 (stereo not shown) [compound 2, reference compound]
- inhibitory activity against human HT29 cells (HT29 cells): significantly inferior to those of the compounds of the present application
- IC50 (HT29 cells; Homo sapiens, HT-29, 16 h): 400 to 4000 nM
- inhibitory activity against mouse L929 cells (L929 cells): almost no inhibitory activities
- IC50 (L929 cells; [1]): > 4000 nM
